Values of other authors as cited in patent publication US12582665B2, “Topical composition” (FUTURA MEDICAL DEVELOPMENTS LIMITED, priority 2020, dated 2026).

Legend:
[1] = not given; remark: listed apart in the source

With C=C(C)[C@@H]1CCC(C)=C[C@H]1c1c(O)cc(CCCCC)cc1O [CBD, cannabidiol] as the molecule, how does the “Solubility in propylene glycol” value read?
The value was “exceeding 10 % w/w”.

And the “log P” value [1]?
Its value is “~+6.00”.
